We go through 2 compounds from patent publication US20150110845A1, “ANTIMICROBIAL POLYNUCLEOTIDE-TEMPLATED METAL NANOCLUSTER” (priority 2013, published 2015).

Values after ≈ are worked out from the molar mass of the structure shown.

The subject of data set [1] is multidrug-resistant bacteria P. aeruginosa. The data set is described as follows: Inhibition of P. aeruginosa growth in solution culture. The class given is cell-based, Pseudomonas aeruginosa. The following applies: overnight at 37° C., shaking 250 rpm; AgNO3 180 μM. The protocol:
Other than DNA-based surface chemistry, the size-dependent controlled-release of Ag^+ from the DNA-templated AgNCs (sub-2nm) were also compared with the citrate-capped silver nanoparticles (AgNPs, 15 nm) and AgNO3 (free flow of Ag^+) against bacterial growth under the same experimental conditions. AgNPs were synthesized based on the Turkevich method whereby an aqueous solution of trisodium citrate was brought to boil, followed by addition of AgNO3 aq solution (310 μM). The reaction was then boiled till a yellow solution was obtained. For the AgNO3, 180 μM of AgNO3 was used for this example.

A further data set relates to human A549 cells. The data set is described as follows: WST-1 cytotoxicity assay. The format is cell-based. The following applies: compared at 44 μM, 4 hours at 37° C. The protocol: The cytotoxicity of the silver-containing species were tested against human A549 cells (from the lungs) using the WST-1 Assay (manufactured by Roche). The silver-bearing species were diluted to different extents and allowed to incubate with the human cells at 37° C. for 4 hours. In the presence of dead cells, the enzymatic assay gave a pink coloured solution (as shown by the box in FIG. 4A), while the living cells gave a brown solution (cells that are outside the box region in FIG. 4A).
The percentage of human dead cells can be quantified spectroscopically by measuring the optical density of the solution at a wavelength of 440 nm. To examine the antimicrobial potency and cytotoxicity of silver in different formulations (AgNPs, DNA-templated AgNCs and AgNO3), the percentage of bacteria cells inhibited (y-axis representing the antibacterial potency) was plotted against the percentage of human A549 cells killed (x-axis representing the eukaryotic cytotoxicity) in FIG. 4B. Here, the relative percentages of human A549 cells killed were compared at a concentration of 44 μM for all silver-containing species.

For another data set, the system named is B. cenocepacia. The following applies: J. Antimicrob. Chemother., 2002, 50, 265-269; cited from earlier work.
In a further data set the test system is P. aeruginosa. The following applies: J. Antimicrob. Chemother., 1999, 43, 345-349; cited from earlier work.

For `O=[N+]([O-])[O-].[Ag+]` [AgNO3], the “P. aeruginosa growth inhibited” value in data set [1] is “up to 97%”. In addition, in the data set on human A549 cells, the “cytotoxicity to human A549 cells” value is reported as “high toxicity”.
One may read the MIC50 as the lowest concentration that inhibits either 50% of growth or 50% of the strains tested, depending on the study. Regarding `O=C(O)c1cn(C2CC2)c2cc(N3CCNCC3)c(F)cc2c1=O` [ciprofloxacin], the results for the MIC50 in the data set with B. cenocepacia and in the data set on P. aeruginosa were 0.36 µM (≈ 0.119 µg/mL) and 0.27 µM (≈ 0.0895 µg/mL), respectively.
